{"source": "paper PMC6259141", "about": "“Phytochemical and Cytotoxic Investigations of Alpinia mutica Rhizomes” (Molecules, 2011)", "key": {"[1]": {"test": "in vitro neutral red cytotoxicity assay, MRC5", "conditions": "human, MRC5 fibroblast cells (normal, non-cancer)", "from_the_text": "(§1) The in vitro cytotoxic activity was studied by the neutral red cytotoxicity assay [5]. KB (epidermoid carcinoma cell line), MCF7 (hormone-dependent breast carcinoma cell line), A549 (lung carcinoma cell line), CaSki (cervical carcinoma cell line), HCT116 (colon carcinoma cell line), HT29 (colon carcinoma cell line) and non-human fibroblast cell line (MRC 5) were purchased from the American Tissue Culture Collection (ATCC)."}, "[2]": {"system": "A549 (lung carcinoma cell line)", "test": "in vitro neutral red cytotoxicity assay, A549", "format": "cell-based", "conditions": "Homo sapiens, A549 cells, averaged from three experiments, read-out: Cytotoxic activity IC50, A549", "from_the_text": "as §1"}, "[3]": {"system": "CaSki (cervical carcinoma cell line)", "test": "in vitro neutral red cytotoxicity assay, CaSki", "conditions": "Homo sapiens, Ca-Ski, read-out: Cytotoxic activity IC50, CaSki", "from_the_text": "as §1"}, "[4]": {"system": "MCF7 (hormone-dependent breast carcinoma cell line)", "test": "in vitro neutral red cytotoxicity assay, MCF7", "conditions": "Homo sapiens, MCF7, read-out: Cytotoxic activity IC50, MCF7", "from_the_text": "as §1"}, "[5]": {"system": "HT29 (colon carcinoma cell line)", "test": "in vitro neutral red cytotoxicity assay, HT29", "format": "cell-based", "conditions": "Homo sapiens, HT-29, HT29 cells, averaged from three experiments, read-out: Cytotoxic activity IC50, HT29", "from_the_text": "as §1"}, "[6]": {"system": "HCT116 (colon carcinoma cell line)", "test": "in vitro neutral red cytotoxicity assay, HCT116", "conditions": "Homo sapiens, HCT-116, read-out: Cytotoxic activity IC50, HCT116", "from_the_text": "as §1"}, "[7]": {"system": "KB (epidermoid carcinoma cell line)", "test": "in vitro neutral red cytotoxicity assay, KB", "conditions": "Homo sapiens, read-out: Cytotoxic activity IC50, KB", "from_the_text": "as §1"}, "[8]": {"system": "HCT116 (colon carcinoma cell line)", "from_the_text": "as §1"}, "[9]": {"system": "CaSki (cervical carcinoma cell line)", "from_the_text": "as §1"}, "[10]": {"system": "KB (epidermoid carcinoma cell line)", "from_the_text": "as §1"}, "[11]": {"system": "MCF7 (hormone-dependent breast carcinoma cell line)", "from_the_text": "as §1"}, "[12]": {"system": "MRC5 fibroblast cell line (non-cancer)", "from_the_text": "as §1"}}, "data": [{"compound": "COc1cccc2c1C(=O)c1c(O)c3c(c(O)c1C2=O)C[C@@](O)(C(=O)CO)C[C@@H]3O[C@H]1C[C@H](N)[C@H](O)[C@H](C)O1", "note": "[Doxorubicin, reference compound]", "values": [{"measurement": "IC50", "setting": "[1]", "value": "0.4 ± 0.03", "unit": "µg/mL"}, {"measurement": "IC50", "setting": "[2]", "value": "0.58 ± 0.01", "unit": "µg/mL"}, {"measurement": "IC50", "setting": "[3]", "value": "0.18 ± 0.06", "unit": "µg/mL"}, {"measurement": "IC50", "setting": "[4]", "value": "0.05 ± 0.01", "unit": "µg/mL"}, {"measurement": "IC50", "setting": "[5]", "value": "0.33 ± 0.03", "unit": "µg/mL"}, {"measurement": "IC50", "setting": "[6]", "value": "0.24 ± 0.04", "unit": "µg/mL"}]}, {"compound": "COc1cc(O)c(C(=O)/C=C/c2ccccc2)c(OC)c1", "note": "[Flavokawin B (1), flavokawin B]", "values": [{"measurement": "IC50", "setting": "[1]", "value": "17.2 ± 0.5", "unit": "µg/mL"}, {"measurement": "IC50", "setting": "[7]", "value": "5.7 ± 0.4", "unit": "µg/mL"}, {"measurement": "IC50", "setting": "[3]", "value": "31.1 ± 1.3", "unit": "µg/mL"}, {"measurement": "IC50", "setting": "[4]", "value": "49.3 ± 1.8", "unit": "µg/mL"}, {"measurement": "IC50", "setting": "[6]", "value": "6.4 ± 0.2", "unit": "µg/mL"}]}, {"compound": "COc1cc(O)c(C(=O)/C=C/c2ccccc2)c(O)c1", "note": "[Pinostrobin chalcone (3), pinostrobin chalcone]", "values": [{"measurement": "IC50", "setting": "[1]", "value": "7.9 ± 0.8", "unit": "µg/mL"}, {"measurement": "IC50", "setting": "[7]", "value": "6.2 ± 0.2", "unit": "µg/mL"}, {"measurement": "IC50", "setting": "[3]", "value": "7.7 ± 0.2", "unit": "µg/mL"}, {"measurement": "IC50", "setting": "[4]", "value": "7.3 ± 0.6", "unit": "µg/mL"}, {"measurement": "IC50", "setting": "[6]", "value": "54.1 ± 4.6", "unit": "µg/mL"}]}, {"compound": "alpinetin [Alpinetin (4)]", "values": [{"measurement": "Cytotoxic activity IC50, HCT116", "setting": "[8]", "value": "39.6 ± 2.0", "unit": "µg/mL"}, {"measurement": "Cytotoxic activity IC50, CaSki", "setting": "[9]", "value": ">100", "unit": "µg/mL"}, {"measurement": "Cytotoxic activity IC50, KB", "setting": "[10]", "value": ">100", "unit": "µg/mL"}, {"measurement": "Cytotoxic activity IC50, MCF7", "setting": "[11]", "value": "> 100", "unit": "µg/mL"}, {"measurement": "Cytotoxic activity IC50, MRC5", "setting": "[12]", "value": "> 100", "unit": "µg/mL"}]}]}
